Tests used:
[1] = target: Mitogen-activated protein kinase kinase kinase 14 (Homo sapiens) (UniProt Q99558); conditions: Compound concentration 1000.0 nM
[2] = target: Macrophage colony-stimulating factor 1 receptor (Homo sapiens) (UniProt P07333); conditions: Compound concentration 1000.0 nM
[3] = target: Cyclin-dependent kinase-like 1 (Homo sapiens) (UniProt Q00532); conditions: Compound concentration 1000.0 nM
[4] = target: Receptor tyrosine-protein kinase erbB-4 (Homo sapiens) (UniProt Q15303); assay: ERBB4 Invitrogen selectivity data (BI); conditions: Compound concentration 3.0 uM
[5] = target: T1, Mitogen-activated protein kinase kinase kinase kinase 2 (Homo sapiens) (UniProt Q12851); assay: MAP4K2 Invitrogen selectivity data (BI); conditions: Compound concentration 3.0 uM
T1 sequence (whole entry): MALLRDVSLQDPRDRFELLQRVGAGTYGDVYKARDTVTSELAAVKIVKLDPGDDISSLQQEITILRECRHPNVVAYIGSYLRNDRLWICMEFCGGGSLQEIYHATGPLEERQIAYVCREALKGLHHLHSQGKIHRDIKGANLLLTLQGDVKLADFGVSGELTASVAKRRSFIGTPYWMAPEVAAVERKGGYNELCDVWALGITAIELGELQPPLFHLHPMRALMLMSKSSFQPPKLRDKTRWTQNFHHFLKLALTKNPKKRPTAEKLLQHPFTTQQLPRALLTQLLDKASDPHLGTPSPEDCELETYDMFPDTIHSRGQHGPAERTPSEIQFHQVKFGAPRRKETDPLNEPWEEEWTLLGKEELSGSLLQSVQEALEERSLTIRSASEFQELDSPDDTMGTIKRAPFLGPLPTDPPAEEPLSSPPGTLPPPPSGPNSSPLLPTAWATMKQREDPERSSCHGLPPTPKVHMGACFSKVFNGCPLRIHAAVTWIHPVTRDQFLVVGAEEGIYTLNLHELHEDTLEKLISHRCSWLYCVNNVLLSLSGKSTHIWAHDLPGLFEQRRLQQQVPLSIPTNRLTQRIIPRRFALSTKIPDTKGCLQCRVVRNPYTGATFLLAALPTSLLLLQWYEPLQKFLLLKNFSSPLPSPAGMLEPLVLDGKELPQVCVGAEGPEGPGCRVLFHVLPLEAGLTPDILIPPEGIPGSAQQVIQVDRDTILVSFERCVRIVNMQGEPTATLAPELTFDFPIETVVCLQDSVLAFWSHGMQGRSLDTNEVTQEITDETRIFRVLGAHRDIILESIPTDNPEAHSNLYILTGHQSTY

[6] = target: Beta-3 adrenergic receptor (Homo sapiens) (UniProt P13945); assay: BETA3/HU Cerep selectivity data (BI); conditions: filed as antagonist, Compound concentration 20.0 uM
[7] = target: Sodium-dependent noradrenaline transporter (Homo sapiens) (UniProt P23975); assay: NEUP/H Cerep selectivity data (BI); conditions: Compound concentration 20.0 uM
[8] = target: T2, Activin receptor type-1 (Homo sapiens) (UniProt Q04771); assay: ACVR1 Invitrogen selectivity data (BI); conditions: Compound concentration 3.0 uM
T2 sequence (whole entry): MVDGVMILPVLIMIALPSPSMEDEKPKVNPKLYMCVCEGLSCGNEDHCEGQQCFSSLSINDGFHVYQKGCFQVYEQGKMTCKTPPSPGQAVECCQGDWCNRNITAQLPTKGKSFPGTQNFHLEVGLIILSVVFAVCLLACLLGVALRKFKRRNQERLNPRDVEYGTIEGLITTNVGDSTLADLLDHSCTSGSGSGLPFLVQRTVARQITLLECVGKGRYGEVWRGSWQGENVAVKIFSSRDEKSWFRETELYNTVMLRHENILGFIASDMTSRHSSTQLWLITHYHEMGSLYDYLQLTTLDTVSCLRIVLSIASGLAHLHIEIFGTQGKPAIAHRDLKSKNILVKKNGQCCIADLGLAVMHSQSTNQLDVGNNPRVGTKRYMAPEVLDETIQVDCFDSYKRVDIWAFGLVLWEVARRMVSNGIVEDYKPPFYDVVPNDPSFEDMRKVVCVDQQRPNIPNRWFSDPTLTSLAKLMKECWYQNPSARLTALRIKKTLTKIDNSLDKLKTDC

[9] = target: RAC-gamma serine/threonine-protein kinase (Homo sapiens) (UniProt Q9Y243); assay: AKT3 Invitrogen selectivity data (BI); conditions: Compound concentration 3.0 uM
RAC-gamma serine/threonine-protein kinase (Homo sapiens), sequence (Q9Y243 whole entry): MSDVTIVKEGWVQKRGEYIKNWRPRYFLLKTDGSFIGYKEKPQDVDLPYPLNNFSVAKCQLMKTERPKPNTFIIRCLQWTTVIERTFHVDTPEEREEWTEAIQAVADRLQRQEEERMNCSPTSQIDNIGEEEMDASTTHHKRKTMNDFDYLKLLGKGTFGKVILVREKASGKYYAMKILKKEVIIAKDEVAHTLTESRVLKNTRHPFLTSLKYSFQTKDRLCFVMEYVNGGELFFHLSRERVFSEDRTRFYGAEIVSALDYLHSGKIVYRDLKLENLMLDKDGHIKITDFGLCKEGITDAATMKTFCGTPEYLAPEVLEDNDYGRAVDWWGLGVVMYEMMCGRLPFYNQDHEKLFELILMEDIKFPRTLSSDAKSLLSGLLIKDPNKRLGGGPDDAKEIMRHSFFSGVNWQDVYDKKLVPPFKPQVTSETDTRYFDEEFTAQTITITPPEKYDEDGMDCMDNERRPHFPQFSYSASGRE

[10] = target: B2 bradykinin receptor (Homo sapiens) (UniProt P30411); assay: B2/H Eurofins-Panlabs selectivity data (BI); conditions: filed as antagonist, Compound concentration 10.0 uM
B2 bradykinin receptor (Homo sapiens), sequence (P30411 whole entry): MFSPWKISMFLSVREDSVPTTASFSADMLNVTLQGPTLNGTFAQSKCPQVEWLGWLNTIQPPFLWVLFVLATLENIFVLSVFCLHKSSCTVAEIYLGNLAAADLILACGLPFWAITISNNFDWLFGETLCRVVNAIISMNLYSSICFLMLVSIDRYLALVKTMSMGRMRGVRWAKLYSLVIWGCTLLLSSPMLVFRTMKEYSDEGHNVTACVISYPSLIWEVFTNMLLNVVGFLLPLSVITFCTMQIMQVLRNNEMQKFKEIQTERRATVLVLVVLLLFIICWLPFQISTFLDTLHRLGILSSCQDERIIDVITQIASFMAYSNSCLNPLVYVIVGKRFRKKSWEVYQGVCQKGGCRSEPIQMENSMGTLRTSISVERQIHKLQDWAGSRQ

[11] = target: Platelet-derived growth factor receptor beta (Homo sapiens) (UniProt P09619); assay: PDGFRB Invitrogen selectivity data (BI); conditions: Compound concentration 3.0 uM
[12] = target: Ribosomal protein S6 kinase alpha-5 (Homo sapiens) (UniProt O75582); assay: RPS6KA5 Invitrogen selectivity data (BI); conditions: Compound concentration 3.0 uM
[13] = target: High affinity choline transporter 1 (Homo sapiens) (UniProt Q9GZV3); assay: CHT1/H Cerep selectivity data (BI); conditions: Compound concentration 20.0 uM
[14] = target: D(2) dopamine receptor (Homo sapiens) (UniProt P14416); assay: D2SH_AGON Cerep selectivity data (BI); conditions: filed as agonist, Compound concentration 20.0 uM
[15] = target: Mitogen-activated protein kinase kinase kinase 14 (Homo sapiens) (UniProt Q99558); assay: MAP3K14 Invitrogen selectivity data (BI); conditions: Compound concentration 3.0 uM
[16] = target: Proto-oncogene tyrosine-protein kinase ROS (Homo sapiens) (UniProt P08922); assay: ROS1 Invitrogen selectivity data (BI); conditions: Compound concentration 3.0 uM
[17] = target: Serine/threonine-protein kinase Nek6 (Homo sapiens) (UniProt Q9HC98); assay: NEK6 Invitrogen selectivity data (BI); conditions: Compound concentration 3.0 uM
[18] = target: Endothelin-1 receptor (Homo sapiens) (UniProt P25101); assay: ETA/H Cerep selectivity data (BI); conditions: Compound concentration 20.0 uM
[19] = target: Dual specificity tyrosine-phosphorylation-regulated kinase 3 (Homo sapiens) (UniProt O43781); assay: DYRK3 Invitrogen selectivity data (BI); conditions: Compound concentration 3.0 uM
Dual specificity tyrosine-phosphorylation-regulated kinase 3 (Homo sapiens), sequence (O43781 whole entry): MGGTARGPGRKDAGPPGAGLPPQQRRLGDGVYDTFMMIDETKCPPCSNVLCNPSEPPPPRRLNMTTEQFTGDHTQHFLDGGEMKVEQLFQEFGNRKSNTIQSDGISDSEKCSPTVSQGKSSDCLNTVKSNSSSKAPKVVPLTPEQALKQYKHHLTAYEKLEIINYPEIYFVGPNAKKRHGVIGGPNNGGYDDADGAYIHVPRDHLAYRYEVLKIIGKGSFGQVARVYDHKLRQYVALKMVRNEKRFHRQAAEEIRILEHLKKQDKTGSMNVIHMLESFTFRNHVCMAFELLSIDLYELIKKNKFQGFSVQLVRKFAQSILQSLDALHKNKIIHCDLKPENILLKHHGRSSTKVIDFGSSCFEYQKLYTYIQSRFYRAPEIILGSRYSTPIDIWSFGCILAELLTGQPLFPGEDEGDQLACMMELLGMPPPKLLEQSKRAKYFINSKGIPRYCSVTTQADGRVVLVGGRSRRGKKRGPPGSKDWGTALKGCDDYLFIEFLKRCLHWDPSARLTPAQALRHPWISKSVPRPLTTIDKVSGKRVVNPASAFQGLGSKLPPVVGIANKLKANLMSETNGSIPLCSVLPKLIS

[20] = target: Oxysterols receptor LXR-beta (Homo sapiens) (UniProt P55055); assay: LXR_BETAH_AGON Cerep selectivity data (BI); conditions: filed as agonist, Compound concentration 20.0 uM
Oxysterols receptor LXR-beta (Homo sapiens), sequence (P55055 whole entry): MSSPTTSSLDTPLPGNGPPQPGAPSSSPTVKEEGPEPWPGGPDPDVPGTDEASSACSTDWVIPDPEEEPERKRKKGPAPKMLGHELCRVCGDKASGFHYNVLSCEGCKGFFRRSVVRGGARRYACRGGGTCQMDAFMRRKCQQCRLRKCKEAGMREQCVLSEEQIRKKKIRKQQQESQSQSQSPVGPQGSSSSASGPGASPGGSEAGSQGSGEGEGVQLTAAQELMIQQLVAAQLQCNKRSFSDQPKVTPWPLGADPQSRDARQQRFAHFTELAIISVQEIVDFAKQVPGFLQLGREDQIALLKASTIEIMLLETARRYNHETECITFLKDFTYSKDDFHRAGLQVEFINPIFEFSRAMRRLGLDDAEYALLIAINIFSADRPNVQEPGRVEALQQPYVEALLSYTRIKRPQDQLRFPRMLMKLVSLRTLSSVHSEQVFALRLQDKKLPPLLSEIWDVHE

[21] = target: Cannabinoid receptor 2 (Homo sapiens) (UniProt P34972); assay: CB2/PERIPH/H Cerep selectivity data (BI); conditions: Compound concentration 20.0 uM
Cannabinoid receptor 2 (Homo sapiens), sequence (P34972 whole entry): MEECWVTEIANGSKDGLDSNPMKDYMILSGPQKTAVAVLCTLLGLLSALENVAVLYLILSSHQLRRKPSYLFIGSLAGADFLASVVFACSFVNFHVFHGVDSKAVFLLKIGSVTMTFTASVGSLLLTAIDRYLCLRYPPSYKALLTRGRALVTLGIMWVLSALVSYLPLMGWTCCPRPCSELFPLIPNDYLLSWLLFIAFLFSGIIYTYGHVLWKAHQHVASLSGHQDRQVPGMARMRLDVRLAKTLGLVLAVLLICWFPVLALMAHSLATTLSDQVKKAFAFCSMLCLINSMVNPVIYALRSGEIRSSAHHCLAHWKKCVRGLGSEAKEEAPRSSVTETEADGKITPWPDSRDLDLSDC

[22] = target: Serine/threonine-protein kinase Chk2 (Homo sapiens) (UniProt O96017); assay: CHEK2 Invitrogen selectivity data (BI); conditions: Compound concentration 3.0 uM
[23] = target: Casein kinase II subunit alpha (Homo sapiens) (UniProt P68400); assay: CSNK2A1 Invitrogen selectivity data (BI); conditions: Compound concentration 3.0 uM
Casein kinase II subunit alpha (Homo sapiens), sequence (P68400 whole entry, looked up): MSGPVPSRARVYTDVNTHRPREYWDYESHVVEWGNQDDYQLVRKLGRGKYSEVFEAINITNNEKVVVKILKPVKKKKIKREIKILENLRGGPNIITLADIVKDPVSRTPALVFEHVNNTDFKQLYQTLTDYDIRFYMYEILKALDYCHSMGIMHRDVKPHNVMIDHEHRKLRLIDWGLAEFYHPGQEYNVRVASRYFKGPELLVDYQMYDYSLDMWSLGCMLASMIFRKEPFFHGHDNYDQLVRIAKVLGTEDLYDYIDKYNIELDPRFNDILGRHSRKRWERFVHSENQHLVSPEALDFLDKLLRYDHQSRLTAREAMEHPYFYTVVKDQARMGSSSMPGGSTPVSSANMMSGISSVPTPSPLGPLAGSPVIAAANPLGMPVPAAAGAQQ

[24] = target: Adenosine receptor A1 (Homo sapiens) (UniProt P30542); assay: A1/HU Eurofins-Panlabs selectivity data (BI); conditions: Compound concentration 10.0 uM
Adenosine receptor A1 (Homo sapiens), sequence (P30542 whole entry): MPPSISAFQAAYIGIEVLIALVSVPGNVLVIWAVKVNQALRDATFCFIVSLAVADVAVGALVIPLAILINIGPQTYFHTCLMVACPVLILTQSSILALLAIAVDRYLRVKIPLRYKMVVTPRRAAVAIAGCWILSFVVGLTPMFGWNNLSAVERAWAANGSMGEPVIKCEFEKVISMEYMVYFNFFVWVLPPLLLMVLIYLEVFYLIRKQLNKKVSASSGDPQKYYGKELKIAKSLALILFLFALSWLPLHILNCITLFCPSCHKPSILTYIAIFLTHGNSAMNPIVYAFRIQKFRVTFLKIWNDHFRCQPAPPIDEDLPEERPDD

[25] = target: Serine/threonine-protein kinase B-raf (Homo sapiens) (UniProt P15056); assay: BRAF Invitrogen selectivity data (BI); conditions: Compound concentration 3.0 uM
[26] = target: Substance-K receptor (Homo sapiens) (UniProt P21452); assay: NK2/H Cerep selectivity data (BI); conditions: Compound concentration 20.0 uM

Measured: residual activity

Mitogen-activated protein kinase kinase kinase 14 (Homo sapiens), sequence (Q99558 whole entry, looked up): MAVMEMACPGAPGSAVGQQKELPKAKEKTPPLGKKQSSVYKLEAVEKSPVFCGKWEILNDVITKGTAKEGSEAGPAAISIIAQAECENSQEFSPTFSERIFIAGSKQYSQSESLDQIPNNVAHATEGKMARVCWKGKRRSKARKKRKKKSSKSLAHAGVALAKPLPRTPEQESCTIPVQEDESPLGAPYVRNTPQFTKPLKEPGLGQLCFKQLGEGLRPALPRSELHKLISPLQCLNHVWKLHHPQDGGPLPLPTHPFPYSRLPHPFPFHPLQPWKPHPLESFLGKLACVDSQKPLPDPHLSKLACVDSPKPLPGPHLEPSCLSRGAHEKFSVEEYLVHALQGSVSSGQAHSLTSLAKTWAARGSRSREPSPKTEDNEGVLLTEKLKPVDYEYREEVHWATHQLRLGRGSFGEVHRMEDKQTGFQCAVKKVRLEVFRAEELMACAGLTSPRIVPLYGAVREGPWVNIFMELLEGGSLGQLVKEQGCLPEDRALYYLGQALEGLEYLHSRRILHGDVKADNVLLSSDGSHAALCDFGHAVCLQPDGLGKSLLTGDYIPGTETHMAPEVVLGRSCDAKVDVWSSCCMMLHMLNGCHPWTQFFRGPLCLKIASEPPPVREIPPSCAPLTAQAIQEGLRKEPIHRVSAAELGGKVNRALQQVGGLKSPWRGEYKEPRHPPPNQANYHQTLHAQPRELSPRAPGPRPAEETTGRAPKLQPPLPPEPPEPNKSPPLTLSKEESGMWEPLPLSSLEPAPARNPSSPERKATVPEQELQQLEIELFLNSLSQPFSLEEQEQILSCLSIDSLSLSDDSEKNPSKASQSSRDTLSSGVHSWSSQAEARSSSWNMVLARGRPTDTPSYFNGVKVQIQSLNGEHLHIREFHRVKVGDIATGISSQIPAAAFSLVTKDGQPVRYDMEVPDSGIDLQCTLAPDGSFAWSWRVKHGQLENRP
Macrophage colony-stimulating factor 1 receptor (Homo sapiens), sequence (P07333 whole entry): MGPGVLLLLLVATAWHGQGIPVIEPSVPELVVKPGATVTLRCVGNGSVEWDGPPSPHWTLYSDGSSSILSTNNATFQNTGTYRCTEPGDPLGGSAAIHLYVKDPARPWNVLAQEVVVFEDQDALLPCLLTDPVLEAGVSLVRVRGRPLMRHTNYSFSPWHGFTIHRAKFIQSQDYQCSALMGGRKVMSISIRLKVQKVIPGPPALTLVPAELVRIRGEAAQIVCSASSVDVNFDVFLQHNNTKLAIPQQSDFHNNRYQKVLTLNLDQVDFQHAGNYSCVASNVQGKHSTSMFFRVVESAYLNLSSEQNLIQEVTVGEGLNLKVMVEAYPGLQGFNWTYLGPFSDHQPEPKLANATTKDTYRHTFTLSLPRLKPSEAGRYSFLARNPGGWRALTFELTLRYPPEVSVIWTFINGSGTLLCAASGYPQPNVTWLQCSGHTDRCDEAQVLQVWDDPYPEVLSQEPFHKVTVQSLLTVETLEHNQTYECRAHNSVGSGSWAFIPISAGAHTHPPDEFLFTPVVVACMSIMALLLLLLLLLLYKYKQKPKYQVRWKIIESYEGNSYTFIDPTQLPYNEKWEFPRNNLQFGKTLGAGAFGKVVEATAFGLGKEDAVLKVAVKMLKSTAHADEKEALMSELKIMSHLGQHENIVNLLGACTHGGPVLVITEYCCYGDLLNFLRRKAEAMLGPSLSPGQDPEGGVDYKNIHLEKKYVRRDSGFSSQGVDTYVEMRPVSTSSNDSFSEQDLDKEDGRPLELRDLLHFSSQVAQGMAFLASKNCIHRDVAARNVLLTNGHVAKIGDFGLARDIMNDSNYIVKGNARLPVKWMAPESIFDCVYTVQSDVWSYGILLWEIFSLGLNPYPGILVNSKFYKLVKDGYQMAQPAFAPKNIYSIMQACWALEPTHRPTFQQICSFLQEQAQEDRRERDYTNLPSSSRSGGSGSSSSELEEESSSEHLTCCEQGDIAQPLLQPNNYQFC

CN(C)C(=O)Cn1cc(-c2nc(C3(c4ccc(-c5cnc(N)nc5)cc4)CC3)no2)cn1 [BI 0153]
inactive: [1] 83% | [2] 100% | [3] 100%

CN(C)C(=O)Cn1cc(-c2nc([C@@](C)(c3ccc(-c4cnc(N)nc4)cc3)C3CC3)no2)cn1 [BI 665915]
inactive: [4] 98.5% | [5] 99.5% | [6] 86% | [7] 94% | [8] 79% | [9] 102% | [10] 123% | [11] 94.5% | [12] 97.5% | [13] 101% | [14] 95% | [15] 98% | [16] 97.5% | [17] 96% | [18] 102% | [19] 102% | [20] 118% | [21] 93% | [22] 99% | [23] 97% | [24] 75% | [25] 95% | [26] 102%
